SMILES strings stand for the structures.

For this assay, the target named is Complement factor D (Homo sapiens, UniProt P00746). Description: Human Factor D Assay: Human Factor D (purified from human serum, Complement Technology, Inc.) at 80 nM final concentration is incubated with test compound at various concentrations for 5 min at room temperature in 50 mM Tris, 1M NaCl, pH 7.5. A synthetic substrate Z-L-Lys-SBzl and DTNB (Ellman's reagent) are added to final concentrations of 100 μM each. […] IC50 values are calculated by nonlinear regression of complement Factor D reaction rates as a function of test compound concentration.
Chain of Complement factor D (P00746 whole entry): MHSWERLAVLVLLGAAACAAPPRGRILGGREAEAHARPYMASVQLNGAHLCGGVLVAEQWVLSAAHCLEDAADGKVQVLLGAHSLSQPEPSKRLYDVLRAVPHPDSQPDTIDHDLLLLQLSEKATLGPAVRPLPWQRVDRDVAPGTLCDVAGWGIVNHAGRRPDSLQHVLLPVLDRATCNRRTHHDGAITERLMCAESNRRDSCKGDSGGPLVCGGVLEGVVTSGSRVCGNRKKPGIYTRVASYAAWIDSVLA
On to `CC(=O)c1nn(CC(=O)N2C[C@H](F)C[C@H]2C(=O)O)c2ccc(-c3cnc(C)nc3)cc12`, for which the IC50 is > 10000 nM.
For `CC(=O)c1nn(CC(=O)N2C[C@H](F)C[C@H]2C(=O)NCCC(C)(C)C)c2ccc(-c3cnc(C)nc3)cc12`, the IC50 is < 1000 nM.
To `Cc1cccc(CC(O)[C@@H]2C[C@@H](F)CN2C(=O)Cn2cc(C(N)=O)c3cc(-c4cnc5cc(C)nn5c4)ccc32)n1` (stereo partly specified) belongs > 10000 nM; to `NC(=O)c1cc(-c2ccco2)n(CC(=O)N2C[C@H](F)C[C@H]2C(=O)Nc2cccc(Br)n2)n1`, < 1000 nM.
`CC(=O)c1nn(CC(=O)N2C[C@H](F)C[C@H]2C(=O)NCCOC(F)(F)F)c2ccc(-c3cnc(C)nc3)cc12`: the IC50 was < 1000 nM.
To `CC(=O)c1nn(CC(=O)N2C[C@H](F)C[C@H]2C(=O)Nc2cccc(-c3ccccc3Cl)c2F)c2ccc(N3C[C@H]4CCCC[C@H]4C3)cc12` belongs < 1000 nM.

These data come from ChEMBL document CHEMBL5729239, “Aryl, heteroaryl, and heterocyclic compounds for treatment of immune and inflammatory disorders” (2022).
